What all share (format): biochemical
The target in one assay is SHP1 (Homo sapiens, UniProt P29350). Briefly: Time-dependent IC50 determination, SHP1 (10 min preincubation, pNPP). The procedure: (§1) During active compound characterization, other common PTPs, including SHP1. PTP1B, and LYP, were counter-screened. Compounds were incubated for 10 minutes with the corresponding PTP (4 μM) before being diluted 50-fold into a solution containing excess substrate para-nitrophenyl phosphate (10 mM) to monitor the remaining activity. […] This was not expected, given their high sequence and structural homology. […] While unexpected, the lower sequence homology provides a rationale for the observed selectivity.
SHP1, sequence (P29350 whole entry): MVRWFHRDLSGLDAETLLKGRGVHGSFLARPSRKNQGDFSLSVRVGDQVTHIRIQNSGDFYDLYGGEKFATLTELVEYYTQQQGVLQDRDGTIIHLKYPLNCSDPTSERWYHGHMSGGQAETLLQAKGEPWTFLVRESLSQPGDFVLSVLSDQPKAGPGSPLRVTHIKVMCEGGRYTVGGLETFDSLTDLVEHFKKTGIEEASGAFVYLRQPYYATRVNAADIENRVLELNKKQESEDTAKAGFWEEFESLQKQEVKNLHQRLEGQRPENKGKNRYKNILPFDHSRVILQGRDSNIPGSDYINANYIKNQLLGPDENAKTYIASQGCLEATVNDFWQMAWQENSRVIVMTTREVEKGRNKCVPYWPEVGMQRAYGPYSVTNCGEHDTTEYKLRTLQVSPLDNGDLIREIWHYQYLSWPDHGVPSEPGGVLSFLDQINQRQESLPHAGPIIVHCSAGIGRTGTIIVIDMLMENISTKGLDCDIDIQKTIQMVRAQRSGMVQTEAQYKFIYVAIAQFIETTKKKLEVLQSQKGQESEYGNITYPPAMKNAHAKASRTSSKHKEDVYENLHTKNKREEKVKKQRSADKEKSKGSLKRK
(§2) Inhibitors were evaluated for their ability to inhibit the reaction catalyzed by SHP2 using para-nitrophenyl phosphate (pNPP) as a substrate at pH 7 and 25° C. The reaction was started in a clear flat-bottom 96-well plate (Corning Costar Assay Plate #9017) by the addition of 25 μL of 4 μM PTP in DMG buffer to 25 μl of 2× inhibitor (final concentrations=2 μM PTP, 100-0 μM inhibitor). Reactions were incubated for 1 or 10 minutes before transferring 4 μL into 196 μL of 10.1 mM pNPP in DMG buffer (final concentration=40 nM PTP, 10 mM pNPP). These wells were then allowed to react for 10, 45, or 3 minutes for SHP1 and SHP2, LYP, PTP1B respectively before quenching with 50 μL of 5 M NaOH. Plates were then read for absorbance at 405 nm using a CLARIOstar^Plus plate reader (BMG Labetch). […]

For a further assay, the target named is T1, SHP2 (Homo sapiens, UniProt Q06124).
T1 construct: 4× solution of SHP2 (residues 224-528)
T1 sequence (Q06124 224-528): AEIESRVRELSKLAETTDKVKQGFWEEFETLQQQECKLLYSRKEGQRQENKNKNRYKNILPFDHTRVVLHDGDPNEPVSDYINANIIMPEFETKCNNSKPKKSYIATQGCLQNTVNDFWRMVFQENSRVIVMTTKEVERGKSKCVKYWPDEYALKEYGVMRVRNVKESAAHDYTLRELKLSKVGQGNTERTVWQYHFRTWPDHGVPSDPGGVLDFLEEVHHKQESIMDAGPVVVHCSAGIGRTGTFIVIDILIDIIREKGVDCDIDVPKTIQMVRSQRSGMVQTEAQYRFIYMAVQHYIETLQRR
The assay can be described thus: Time-dependent IC50 determination, SHP2 (10 min preincubation, pNPP). The following applies: 10 mM pNPP, pH 7, 25° C, read-out: 10 Minute IC50. The procedure:
as §1, §2

For a further assay, the target named is T2, SHP2 (residues 224-528) (Homo sapiens, UniProt Q06124).
T2 construct: 4× solution of SHP2 (residues 224-528)
T2 sequence (Q06124 224-528): T1 sequence (Q06124 224-528)
The assay can be described thus: Kinetic characterization of SHP2 inactivation (pNPP cleavage progress curves, kobs, kinact/KI). The settings on record: pH 7, role: inhibitor; substrate pNPP 3 mM, 100 nM SHP2, pH 7.0, 25° C; read-out: kinact/KI (converted). The source says:
Covalent inhibitors work by forming a covalent bond with a reactive functional group in the target enzyme. Consequently, the kinetics for enzyme inactivation by a covalent inhibitor is not an equilibrium process as with reversible inhibition. The potency of a reversible inhibitor can be measured by its IC50 value. Unlike reversible inhibitors, where inhibition is only concentration-dependent, covalent inhibitors show both time- and concentration-dependent target inhibition (a covalent bond formation is a time-dependent event). If sufficient time is available, covalent inhibitors can completely neutralize the target, rather than go to equilibrium. As a result, the potency and selectivity of a covalent inhibitor cannot be determined by IC50 values; instead, the rate of inactivation of the target (kinact) and the inhibition constant (KI) were determined. The bimolecular rate constant (kinact/KI), was chosen to rank the potency of covalent inhibitors (Ruddraraju et al., 2017, Molecular Biosystems 13(7), 1257-1279).
PTPs catalyze the dephosphorylation of tyrosine-phosphorylated protein substrates through a conserved mechanism that relies on a catalytic cysteine residue (Zhang, Z.-Y et al., 2003, Prog. Nucleic Acid Research Molecular Biology, 73, 171-220). This provides a mechanistic rationale for the assessment of electrophilic Michael acceptors, such as those synthesized in the present disclosure as potential covalent inhibitors of the SHP2. The enzymatic cleavage of para-nitrophenyl phosphate by SHP2 was measured over time in the presence of 100 μM inhibitor or DMSO, to determine the observed first-order rate constant (kobs). Based on kobs values, compounds were further evaluated in a dose-dependent manner to determine the second-order rate constant (kinact/KI) indicating the overall efficacy of the compounds, which was used to assess the structure-activity relationship (SAR) for the analogs of interest and design additional analogs (see Table 1). […] It has been known that modifications to the electronegativity of substituents proximal to electrophilic centers alter the reactivity of the electrophile.
The efficacy of covalent inhibitors can be broken down into the initial reversible binding of the compounds (KI), and the rate of covalent bond formation and enzyme inactivation (kinact). These two constants can be used individually, or as a ratio to determine the overall efficacy of the inhibitor's efficacy. To investigate the contribution to reversible binding compound (34) was evaluated, which lacks the carbonyl of the Michael acceptor to prevent the formation of a covalent adduct.
Inhibitors were evaluated for their ability to inhibit the reaction catalyzed by SHP2 using para-nitrophenyl phosphate (pNPP) as a substrate at pH 7 and 25° C. A 2× solution of inhibitor was diluted into DMG buffer (50 mM 3,3-dimethylglutarate pH 7.0, 1 mM EDTA, ionic strength adjusted to 150 mM using NaCl) was added to a clear flat-bottom 96-well plate (Corning Costar Assay Plate #9017), and serially diluted 1.5-fold, resulting in 100 μL volumes of varying inhibitor concentrations. To this was added a 4× solution of pNPP (12 mM) in DMG buffer. The reaction was initialized by the addition of a 4× solution of SHP2 (residues 224-528), resulting in a final solution of: inhibitor (100-0 μM), pNPP (3 mM), and SHP2 (100 nM). The plate was then monitored for a change in absorbance ab […] using a CLARIOstar^Plus plate reader (BMG Labetch) over the course of an hour. The resulting progress curves for each inhibitor were imported into Graphpad Prism 9 (GraphPad Software, San Diego, CA (USA)), and a baseline correction analysis was completed for fitting purposes. Each curve was fit to the equation Y=V0×(1−e^−kobs*t)/kobs.^[17.22] The kobs values were then plotted against inhibitor concentrations. If the resulting graph was linear, the kinact/KI value was determined by the slope of that line and the 95% confidence interval (95% CI). […]

The text below walks through data of patent US20260327239A1, “COMPOUNDS FOR COVALENT INHIBITION OF SHP2” (Purdue Research Foundation, priority 2023, published 2026).

As usually defined, the IC50 is the concentration at which inhibition is half-maximal. With `C=C1C(=O)[C@@]2(C(=O)N3CCN(c4ccc(I)cc4)CC3)CC(=O)C[C@@H]1C2` [Compound 37], the half-maximal inhibitory concentration (IC50) was 212 µM at SHP1 (SHP1, 10 minutes preincubation, curve not completed (solubility), extrapolated, read-out: 10 Minute IC50) and 15.4 µM at SHP2. For the same compound, the “Fold-Selective (10 Minutes)” value on SHP1 (SHP2 over SHP1) stood at 13.75 fold. The kinact/KI at SHP2 (residues 224-528) was 396 M⁻¹ s⁻¹.
